Key:
[1] = glomerular filtration about 125 ml per minute, total renal clearance 600 to 700 ml per minute; cited from earlier work
[2] = background statement; cited from earlier work
[3] = Biodistribution in mice by organ uptake measurements, relative to Tc99m-MAG3 (iodo-131-Hippuran as reference standard); type: in vivo; conditions: for Blood: ratio of uptake of compound to uptake of Tc99m-MAG3 / Hepatic (system): ratio of uptake of compound to uptake of Tc99m-MAG3 / Intestines: ratio of uptake of compound to uptake of Tc99m-MAG3 / Kidneys: ratio of uptake of compound to uptake of Tc99m-MAG3 / Liver: ratio of uptake of compound to uptake of Tc99m-MAG3 / Remainder / Rest of the body: ratio of uptake of compound to uptake of Tc99m-MAG3 / Renal (system): ratio of uptake of compound to uptake of Tc99m-MAG3 / Stomach: ratio of uptake of compound to uptake of Tc99m-MAG3 / Urine: ratio of uptake of compound to uptake of Tc99m-MAG3: intravenous, 10 minutes after administration, each normalised to iodo-131-Hippuran; for Secretion characteristics / organ distribution compared with Tc99m-MAG3 (in words): secretion in urine, retention in kidneys, liver, intestines
Method: Tc99m-MAGAG-DA, separated by HPLC, is diluted with physiological saline solution to a concentration of 370 kilobecquerel per mi. Iodo-131-Hippuran is added to this solution as a reference standard. An amount of 0.1 ml of this mixture is injected intravenously into each of the eight mice, so that 37 kilobecquerel of Tc99m-MAGAG-DA and 18.5 kilobecquerel of iodo-131-Hippuran are injected per animal. Measures are taken to collect all the excreted urine. 10 Minutes after the administration the mice are sacrificed. It is ensured that all the blood is collected. All parts of the body are brought in separate tubes and the activity of Tc99m and I131 is determined for each part of the body. From the measured results the relative quantity of both tracer products in urine, kidneys, intestines. liver, blood and the collective remainder of the body is computed. In the same manner, Tc99m-MAGA-DB, separated by HPLC, and Tc99m-mercaptoacetylglycylglycylglycine (Tc99m-MAG3), purified by HPLC, both with iodo-131-Hippuran as a reference standard, are tested in two other groups of 8 and 6 mice, respectively. For all three Tc99m-labelled compounds -- MAGAG-DA, MAGAG-DB and MAG3 -- the relative percentages of Tc99m activity in the various organs are calculated with respect to iodo-131-Hippuran. After this, the ratios of Tc99m-MAGAG-DA and -DB can be calculated with respect to Tc99m-MAG3 in the various organs.
In the same ray as described in Example III the biodistribution of the above compound in mice is determined relative to that of Tc99m-MAG3 by organ uptake measurements.
In the same way as described in Example III the biodistribution of the above compound in mice is determined relative to that of Tc99m-MAG3 by organ uptake measurements.

| Compound | clearance [1] | Secretion by the kidneys (in words) [2] | Blood: ratio of uptake of compound to uptake of Tc99m-MAG3 [3] | Hepatic (system): ratio of uptake of compound to uptake of Tc99m-MAG3 [3] | Intestines: ratio of uptake of compound to uptake of Tc99m-MAG3 [3] | Kidneys: ratio of uptake of compound to uptake of Tc99m-MAG3 [3] | Liver: ratio of uptake of compound to uptake of Tc99m-MAG3 [3] | Remainder / Rest of the body: ratio of uptake of compound to uptake of Tc99m-MAG3 [3] | Renal (system): ratio of uptake of compound to uptake of Tc99m-MAG3 [3] | Stomach: ratio of uptake of compound to uptake of Tc99m-MAG3 [3] | Urine: ratio of uptake of compound to uptake of Tc99m-MAG3 [3] | Secretion characteristics / organ distribution compared with Tc99m-MAG3 (in words) [3] |
| --- | --- | --- | --- | --- | --- | --- | --- | --- | --- | --- | --- | --- |
| O=C([O-])CN(CCN(CC(=O)[O-])CC(=O)[O-])CCN(CC(=O)[O-])CC(=O)[O-].[99Tc+4] [chelate of DTPA, Tc99m-diethylene triamine pentascetic acid] | 100 ml of blood plasma per minute | – | – | – | – | – | – | – | – | – | – | – |
| O=C([O-])CNC(=O)c1ccccc1[131I].[Na+] [iodo-131-Hippuran] | – | secreted actively tubularly | – | – | – | – | – | – | – | – | – | – |
| Tc99m-mercaptoacetyl-D-alanylglycylglycine [Tc99m-MAAG2-DB] | – | – | 1.17 | 0.84 | 0.95 | 0.66 | 0.79 | 1.45 | 0.96 | 1.40 | 0.99 | more favourable organ distribution than Tc99m-MAG3 |
| Tc99m-mercaptoacetylglycyl-D-alanylglycine [Tc99m-MAGAG-DA] | – | – | 1.12 | 0.60 | 0.44 | 0.36 | 0.68 | 0.90 | 1.05 | 0.83 | 1.13 | significantly better than those of Tc99m-MAG3 |
| Tc99m-mercaptoacetylglycyl-D-alanylglycine [Tc99m-MAGAG-DB] | – | – | 1.20 | 0.59 | 0.41 | 0.37 | 0.68 | 0.94 | 1.07 | 0.85 | 1.14 | significantly better than those of Tc99m-MAG3 |
| Tc99m-mercaptoacetylglycylglycylglycine [Tc99m-MAG3] | – | secreted by the kidneys selectively and slightly faster than iodo-Hippuran | – | – | – | – | – | – | – | – | – | – |

Source: US5534497A, “Technetium chelates to be used for determining the renal function” (Mallinckrodt Medical, Inc., priority 1986, dated 1996)
